Patent US6054435A, “6-O-substituted macrolides having antibacterial activity” (priority 1999, dated 2000)
Converted amounts (≈) assume the structure as drawn.

Columns and labels:
Assay in all cases: in vitro antibacterial activity (MIC), agar dilution
Format in all cases: cell-based
Candida albicans CCH 442 = conditions: organism code TT; BHI agar, 35-37° C., 20 to 24 hours; unit assumed
In short: (§1)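 BHI agar incorporation method; twelve compound concentrations. Streptococcus and other slow growers inoculated at 1:10, other strains at 1:100. Visual MIC read-out versus growth control.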

[1] = system: Enterococcus faecium ATCC 8043; conditions: organism code II; BHI agar, 35-37° C., 20 to 24 hours; unit assumed
In short: as §1

Escherichia coli DC-2 = conditions: organism code SS; BHI agar, 35-37° C., 20 to 24 hours; unit assumed
In short: as §1

Escherichia coli JUHL = conditions: organism code QQ; BHI agar, 35-37° C., 20 to 24 hours; unit assumed
In short: as §1

Escherichia coli SS = conditions: organism code RR; BHI agar, 35-37° C., 20 to 24 hours; unit assumed
In short: as §1

[2] = system: Haemophilis Influenzae DILL AMP R; conditions: organism code WW; BHI agar, 35-37° C., 20 to 24 hours; unit assumed
In short: as §1

[3] = system: Micrococcus luteus ATCC 4698; conditions: organism code PP; BHI agar, 35-37° C., 20 to 24 hours; unit assumed
In short: (§2)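 Endpoint: lowest concentration with no growth, slight haze or sparsely isolated colonies at the inoculum spot, judged against a compound-free BHI control. Strains were replicator-inoculated at 1:100 (1:10 for Streptococcus and other slow growers).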

[4] = system: Micrococcus luteus ATCC 9341; conditions: organism code OO; BHI agar, 35-37° C., 20 to 24 hours; unit assumed
In short: as §2

[5] = system: Mycobacterium smegmatis ATCC 114; conditions: organism code UU; BHI agar, 35-37° C., 20 to 24 hours; unit assumed
In short: as §1

[6] = system: Nocardia Asteroides ATCC9970; conditions: organism code VV; BHI agar, 35-37° C., 20 to 24 hours; unit assumed
In short: as §1

[7] = system: Staphylococcus aureus 1775; conditions: organism code GG; BHI agar, 35-37° C., 20 to 24 hours; unit assumed
In short: as §1

[8] = system: Staphylococcus aureus A-5278; conditions: organism code CC; BHI agar, 35-37° C., 20 to 24 hours; unit assumed
In short: as §1

[9] = system: Staphylococcus aureus A5177; conditions: organism code BB; BHI agar, 35-37° C., 20 to 24 hours; unit assumed
In short: as §1

[10] = system: Staphylococcus aureus ATCC 6538P; conditions: organism code AA; BHI agar, 35-37° C., 20 to 24 hours; unit assumed
In short: as §1

[11] = system: Staphylococcus aureus CMX 553; conditions: organism code FF; BHI agar, 35-37° C., 20 to 24 hours; unit assumed
In short: as §1

[12] = system: Staphylococcus aureus CMX 642A; conditions: organism code DD; BHI agar, 35-37° C., 20 to 24 hours; unit assumed
In short: as §1

[13] = system: Staphylococcus aureus NCTC10649M; conditions: organism code EE; BHI agar, 35-37° C., 20 to 24 hours; unit assumed
In short: as §1

[14] = system: Staphylococcus epidermidis 3519; conditions: organism code HH; BHI agar, 35-37° C., 20 to 24 hours; unit assumed
In short: as §1

[15] = system: Streptococcus Pneumonia 5649; conditions: organism code ZZA; BHI agar, 35-37° C., 20 to 24 hours; unit assumed
In short: as §1

[16] = system: Streptococcus Pneumonia 5979; conditions: organism code ZZ; BHI agar, 35-37° C., 20 to 24 hours; unit assumed
In short: as §1

[17] = system: Streptococcus Pneumonia ATCC6303; conditions: organism code XX; BHI agar, 35-37° C., 20 to 24 hours; unit assumed
In short: as §1

[18] = system: Streptococcus Pneumonia GYR 1171; conditions: organism code YY; BHI agar, 35-37° C., 20 to 24 hours; unit assumed
In short: as §1

[19] = system: Streptococcus agalactiae CMX 508; conditions: organism code KK; BHI agar, 35-37° C., 20 to 24 hours; unit assumed
In short: as §1

[20] = system: Streptococcus bovis A-5169; conditions: organism code JJ; BHI agar, 35-37° C., 20 to 24 hours; unit assumed
In short: as §1

[21] = system: Streptococcus pyogenes 930; conditions: organism code MM; BHI agar, 35-37° C., 20 to 24 hours; unit assumed
In short: as §1

[22] = system: Streptococcus pyogenes EES61; conditions: organism code LL; BHI agar, 35-37° C., 20 to 24 hours; unit assumed
In short: as §1

[23] = system: Streptococcus pyogenes PIU 2548; conditions: organism code NN; BHI agar, 35-37° C., 20 to 24 hours; unit assumed
In short: as §1

Structure (SMILES) | MIC (Candida albicans CCH 442) | MIC [1] | MIC (Escherichia coli DC-2) | MIC (Escherichia coli JUHL) | MIC (Escherichia coli SS) | MIC [2] | MIC [3] | MIC [4] | MIC [5] | MIC [6] | MIC [7] | MIC [8] | MIC [9] | MIC [10] | MIC [11] | MIC [12] | MIC [13] | MIC [14] | MIC [15] | MIC [16] | further results
CC[C@H]1OC(=O)[C@H](C)C(=O)[C@H](C)[C@@H](O[C@@H]2O[C@H](C)C[C@H](N(C)C)[C@H]2O)[C@](C)(OC/C=C/c2ccc(-c3cncnc3)s2)C[C@@H](C)C(=O)[C@H](C)[C@H]2NC(=O)O[C@@]21C [Example 70] | > 100 µg/mL | 0.05 µg/mL (≈ 0.0626 µM) | 100 µg/mL (≈ 125 µM) | 100 µg/mL (≈ 125 µM) | 0.78 µg/mL (≈ 0.976 µM) | 4 µg/mL (≈ 5.01 µM) | 0.1 µg/mL (≈ 0.125 µM) | 0.02 µg/mL (≈ 0.025 µM) | 0.39 µg/mL (≈ 0.488 µM) | 0.02 µg/mL (≈ 0.025 µM) | > 100 µg/mL | > 100 µg/mL | 0.2 µg/mL (≈ 0.25 µM) | 0.1 µg/mL (≈ 0.125 µM) | 0.1 µg/mL (≈ 0.125 µM) | 0.1 µg/mL (≈ 0.125 µM) | 0.2 µg/mL (≈ 0.25 µM) | 0.1 µg/mL (≈ 0.125 µM) | 0.25 µg/mL (≈ 0.313 µM) | 4 µg/mL (≈ 5.01 µM) | MIC [17]: 0.015 µg/mL (≈ 0.0188 µM); MIC [18]: 0.015 µg/mL (≈ 0.0188 µM); MIC [19]: 0.02 µg/mL (≈ 0.025 µM); MIC [20]: 0.01 µg/mL (≈ 0.0125 µM); MIC [21]: 12.5 µg/mL (≈ 15.6 µM); MIC [22]: 0.01 µg/mL (≈ 0.0125 µM); MIC [23]: 0.1 µg/mL (≈ 0.125 µM)
CC[C@H]1OC(=O)[C@H](C)C(=O)[C@H](C)[C@@H](O[C@@H]2O[C@H](C)C[C@H](N(C)C)[C@H]2O)[C@](C)(OC/C=C/c2ccc(-c3ccc(Cl)c(Cl)c3)s2)C[C@@H](C)C(=O)[C@H](C)[C@H]2NC(=O)O[C@@]21C [Example 71] | > 100 µg/mL | 0.39 µg/mL (≈ 0.45 µM) | > 100 µg/mL | > 100 µg/mL | 3.1 µg/mL (≈ 3.58 µM) | 16 µg/mL (≈ 18.5 µM) | 0.39 µg/mL (≈ 0.45 µM) | 0.39 µg/mL (≈ 0.45 µM) | 0.39 µg/mL (≈ 0.45 µM) | 0.39 µg/mL (≈ 0.45 µM) | 12.5 µg/mL (≈ 14.4 µM) | 12.5 µg/mL (≈ 14.4 µM) | 0.39 µg/mL (≈ 0.45 µM) | 0.39 µg/mL (≈ 0.45 µM) | 0.39 µg/mL (≈ 0.45 µM) | 0.39 µg/mL (≈ 0.45 µM) | 0.39 µg/mL (≈ 0.45 µM) | 0.39 µg/mL (≈ 0.45 µM) | 1 µg/mL (≈ 1.15 µM) | 4 µg/mL (≈ 4.62 µM) | MIC [17]: 0.125 µg/mL (≈ 0.144 µM); MIC [18]: 0.125 µg/mL (≈ 0.144 µM); MIC [19]: 0.1 µg/mL (≈ 0.115 µM); MIC [20]: 0.05 µg/mL (≈ 0.0577 µM); MIC [21]: 3.1 µg/mL (≈ 3.58 µM); MIC [22]: 0.1 µg/mL (≈ 0.115 µM); MIC [23]: 0.39 µg/mL (≈ 0.45 µM)
CC[C@H]1OC(=O)[C@H](C)C(=O)[C@H](C)[C@@H](O[C@@H]2O[C@H](C)C[C@H](N(C)C)[C@H]2O)[C@](C)(OC/C=C/c2ccc(-c3cccs3)s2)C[C@@H](C)C(=O)[C@H](C)[C@H]2NC(=O)O[C@@]21C [Example 74] | > 100 µg/mL | 0.02 µg/mL (≈ 0.0249 µM) | > 100 µg/mL | 100 µg/mL (≈ 125 µM) | 0.39 µg/mL (≈ 0.486 µM) | 4 µg/mL (≈ 4.98 µM) | 0.1 µg/mL (≈ 0.125 µM) | 0.02 µg/mL (≈ 0.0249 µM) | 0.39 µg/mL (≈ 0.486 µM) | 0.1 µg/mL (≈ 0.125 µM) | 25 µg/mL (≈ 31.1 µM) | 50 µg/mL (≈ 62.3 µM) | 0.1 µg/mL (≈ 0.125 µM) | 0.1 µg/mL (≈ 0.125 µM) | 0.1 µg/mL (≈ 0.125 µM) | 0.1 µg/mL (≈ 0.125 µM) | 0.2 µg/mL (≈ 0.249 µM) | 0.1 µg/mL (≈ 0.125 µM) | 0.25 µg/mL (≈ 0.311 µM) | 2 µg/mL (≈ 2.49 µM) | MIC [17]: ≤ 0.004 µg/mL; MIC [18]: ≤ 0.004 µg/mL; MIC [19]: ≤ 0.005 µg/mL; MIC [20]: 0.02 µg/mL (≈ 0.0249 µM); MIC [21]: > 100 µg/mL; MIC [22]: 0.01 µg/mL (≈ 0.0125 µM); MIC [23]: 0.1 µg/mL (≈ 0.125 µM)
